Results: ChEMBL document CHEMBL1138210, “Discovery of potent, orally-active, and muscle-selective androgen receptor modulators based on an N-aryl-hydroxybicyclohydantoin scaffold” (J Med Chem, 2006)

What was measured:
[1] = biological target: T1, Androgen receptor (Rattus norvegicus, UniProt P15207)
T1 sequence (P15207 whole entry): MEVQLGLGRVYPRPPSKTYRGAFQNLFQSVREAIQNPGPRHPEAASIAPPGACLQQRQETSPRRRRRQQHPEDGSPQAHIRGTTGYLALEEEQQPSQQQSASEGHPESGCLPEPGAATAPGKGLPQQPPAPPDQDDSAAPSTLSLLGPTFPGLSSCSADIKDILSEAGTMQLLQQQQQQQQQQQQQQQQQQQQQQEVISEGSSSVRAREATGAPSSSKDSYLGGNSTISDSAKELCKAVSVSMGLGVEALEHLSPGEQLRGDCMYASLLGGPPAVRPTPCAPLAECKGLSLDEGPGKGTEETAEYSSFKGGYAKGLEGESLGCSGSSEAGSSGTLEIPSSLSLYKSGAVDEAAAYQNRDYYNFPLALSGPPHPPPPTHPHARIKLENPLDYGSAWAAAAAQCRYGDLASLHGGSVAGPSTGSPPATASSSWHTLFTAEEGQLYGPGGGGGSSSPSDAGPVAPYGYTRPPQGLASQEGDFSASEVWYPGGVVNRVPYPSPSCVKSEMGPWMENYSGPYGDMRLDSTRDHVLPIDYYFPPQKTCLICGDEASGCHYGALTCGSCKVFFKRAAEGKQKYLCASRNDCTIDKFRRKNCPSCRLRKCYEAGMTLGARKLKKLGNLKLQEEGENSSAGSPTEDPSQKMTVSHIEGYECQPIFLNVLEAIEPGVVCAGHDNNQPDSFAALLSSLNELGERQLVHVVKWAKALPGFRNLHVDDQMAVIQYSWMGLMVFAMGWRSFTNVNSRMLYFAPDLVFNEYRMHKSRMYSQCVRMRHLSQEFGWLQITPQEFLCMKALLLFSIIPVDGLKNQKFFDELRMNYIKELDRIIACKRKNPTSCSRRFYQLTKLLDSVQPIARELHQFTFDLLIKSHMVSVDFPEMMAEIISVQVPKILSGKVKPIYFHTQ
Description: Agonist activity at rat AR transfected in mouse C2C12 cells by luciferase reporter transactivation assay

[2] = biological target: T2, Androgen receptor (Homo sapiens, UniProt P10275); experiment: biochemical
T2 sequence (P10275 whole entry): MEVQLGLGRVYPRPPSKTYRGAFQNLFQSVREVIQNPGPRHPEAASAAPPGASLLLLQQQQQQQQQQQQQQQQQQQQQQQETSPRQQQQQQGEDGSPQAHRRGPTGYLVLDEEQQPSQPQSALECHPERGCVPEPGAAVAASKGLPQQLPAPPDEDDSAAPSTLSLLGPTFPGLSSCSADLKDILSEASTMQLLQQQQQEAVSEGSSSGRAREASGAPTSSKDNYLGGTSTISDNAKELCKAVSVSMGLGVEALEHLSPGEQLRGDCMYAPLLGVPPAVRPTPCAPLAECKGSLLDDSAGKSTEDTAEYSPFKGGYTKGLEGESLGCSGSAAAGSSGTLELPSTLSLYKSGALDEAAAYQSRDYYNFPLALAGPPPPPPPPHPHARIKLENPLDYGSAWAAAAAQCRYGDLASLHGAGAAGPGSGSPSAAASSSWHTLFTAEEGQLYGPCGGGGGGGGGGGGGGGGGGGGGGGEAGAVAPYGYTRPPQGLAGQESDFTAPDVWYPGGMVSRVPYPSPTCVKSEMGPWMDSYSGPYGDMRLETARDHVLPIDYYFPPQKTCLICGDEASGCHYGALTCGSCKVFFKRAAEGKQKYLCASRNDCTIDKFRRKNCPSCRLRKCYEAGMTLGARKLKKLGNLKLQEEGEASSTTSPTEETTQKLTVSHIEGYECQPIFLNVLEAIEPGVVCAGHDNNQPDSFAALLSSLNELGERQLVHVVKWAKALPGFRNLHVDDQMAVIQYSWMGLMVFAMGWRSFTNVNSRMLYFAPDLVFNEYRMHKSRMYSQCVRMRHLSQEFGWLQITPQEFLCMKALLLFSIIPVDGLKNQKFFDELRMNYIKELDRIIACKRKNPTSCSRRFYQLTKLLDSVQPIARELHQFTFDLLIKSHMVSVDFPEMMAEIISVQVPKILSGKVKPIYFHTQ
Description: Displacement of [3H]DHT from human AR in MDA453 cells

[3] = test system: Rattus norvegicus; experiment: Stimulation of levator ani muscle growth in orally dosed castrated Sprague-Dawley rat; assay type: functional; details: po
[4] = test system: Rattus norvegicus; experiment: Stimulation of prostate growth in orally dosed castrated Sprague-Dawley rat; assay type: functional; details: Prostate gland, po
[5] = test system: Rattus norvegicus; experiment: Inhibition of LH secretion in orally dosed castrated Sprague-Dawley rat; assay type: functional; details: po
[6] = biological target: T1, Androgen receptor; experiment: Antagonist activity against rat AR transfected in mouse C2C12 cells by luciferase reporter transactivation assay relative to DHT; assay type: functional, cell-based
[7] = test system: Rattus norvegicus; experiment: Stimulation of levator ani muscle growth in sc dosed castrated Sprague-Dawley rat; assay type: functional
[8] = test system: Rattus norvegicus; experiment: Stimulation of prostate growth in sc dosed castrated Sprague-Dawley rat; assay type: functional; details: Prostate gland
[9] = test system: Rattus norvegicus; experiment: Inhibition of LH secretion in sc dosed castrated Sprague-Dawley rat; assay type: functional, organism-based
[10] = test system: Rattus norvegicus; experiment: Selectivity for stimulation of levetor ani muscle over suppression of LH secretion in sc dosed castrated Sprague-Dawley rat; assay type: functional, Muscle tissue
[11] = test system: Rattus norvegicus; experiment: Selectivity for stimulation of levator ani muscle over prostate in sc dosed castrated Sprague-Dawley rat; assay type: functional

| Structure (SMILES) | EC50 [1] [nM] | Ki [2] [nM] | further results |
| --- | --- | --- | --- |
| O=C1[C@@H]2[C@H](O)CCN2C(=O)N1c1ccc([N+](=O)[O-])c2ccccc12 (single isomer, unassigned) | 281 | 1.5 | – |
| O=C1[C@H]2C[C@H](O)CN2C(=O)N1c1ccc([N+](=O)[O-])c2ccccc12 | 265 | 4.3 | – |
| N#Cc1ccc(N2C(=O)[C@@H]3[C@H](O)CCN3C2=O)c2ccccc12 | 2.3 | – | ED50 [3]: 2 mg/kg; ED50 [4]: > 100 mg/kg; ED50 [5]: 60 mg/kg |
| O=C1[C@@H]2[C@H](O)CCN2C(=O)N1c1ccc([N+](=O)[O-])c2ccccc12 | 1.5 | 2.1 | – |
| O=C1C2CCCN2C(=O)N1c1ccc([N+](=O)[O-])c2ccccc12 (centres undefined) | 270 | 1.7 | – |
| O=C1C2C(O)CCN2C(=O)N1c1ccc([N+](=O)[O-])c2ccccc12 (racemic) | 4.4 | 3.5 | – |
| O=C1[C@H]2[C@@H]3CC[C@@H](C3)N2C(=O)N1c1ccc([N+](=O)[O-])c2ccccc12 | 385 | 1 | – |
| N#Cc1ccc(N2C(=O)[C@@H]3[C@H](O)CCN3C2=O)c2ccccc12 (single isomer, unassigned) | 1300 | – | IC50 [6]: 60 nM |
| N#Cc1ccc(N2C(=O)C3C(O)CCN3C2=O)c2ccccc12 (racemic) | 6.3 | – | – |
| N#Cc1ccc(N2C(=O)[C@H]3[C@@H]4CC[C@@H](C4)N3C2=O)c2ccccc12 | > 1000 | 24 | IC50 [6]: 260 nM |
| O=C1[C@H]2C[C@@H](O)CN2C(=O)N1c1ccc([N+](=O)[O-])c2ccccc12 | 320 | 1.5 | – |
| CCC(=O)O[C@H]1CC[C@H]2[C@@H]3CCC4=CC(=O)CC[C@]4(C)[C@H]3CC[C@]12C [TESTOSTERONE PROPIONATE] | – | – | ED50 [7]: 0.21 mg/kg; ED50 [8]: 0.42 mg/kg; EC50 [9]: 0.26 mg/kg; Ratio ED50 [10]: 1.2; Ratio ED50 [11]: 2 |
